Measurements reported in ChEMBL document CHEMBL3425452, “Farnesyl diphosphate synthase inhibitors with unique ligand-binding geometries” (ACS Med Chem Lett, 2015).

Columns and labels:
[1] = Inhibition of Trypanosoma brucei FPPS
[2] = Inhibition of Leishmania donovani FPPS
[3] = test system: Trypanosoma brucei rhodesiense; test: Growth inhibition of Trypanosoma brucei rhodesiense

| IC50 [2] [nM] | EC50 [3] [nM] | Compound | IC50 [1] [nM] |
| --- | --- | --- | --- |
|  |  | O=P(O)(O)C(O)(Cc1cccnc1)P(=O)(O)O [RISEDRONIC ACID] | 300 |
|  |  | Cc1cccnc1NC(P(=O)(O)O)P(=O)(O)O | 230 |
| 5400 | 1700 | O=P(O)(O)C(O)(CCc1cccnc1)P(=O)(O)O | 33000 |
